PMC4777574, “Pharmacological Inhibition of Monoacylglycerol O-Acyltransferase 2 Improves Hyperlipidemia, Obesity, and Diabetes by Change in Intestinal Fat Utilization” (PLoS ONE, 2016)

Assays:
[1] = target: T1, Monoacylglycerol O-acyltransferase 2 (MGAT2) (Homo sapiens, UniProt Q3SYC2); assay: MGAT2 enzyme inhibition IC50 (assay details not given); type: biochemical
T1 construct: gene MOGAT2

[2] = target: T2, Monoacylglycerol O-acyltransferase 2 (MGAT2) (Mus musculus, UniProt Q80W94); assay: MGAT2 enzyme inhibition IC50 (assay details not given); anorectic effect lost in MGAT2 KO mice; type: biochemical
T2 construct: gene Mogat2
T2 sequence (Q80W94 whole entry): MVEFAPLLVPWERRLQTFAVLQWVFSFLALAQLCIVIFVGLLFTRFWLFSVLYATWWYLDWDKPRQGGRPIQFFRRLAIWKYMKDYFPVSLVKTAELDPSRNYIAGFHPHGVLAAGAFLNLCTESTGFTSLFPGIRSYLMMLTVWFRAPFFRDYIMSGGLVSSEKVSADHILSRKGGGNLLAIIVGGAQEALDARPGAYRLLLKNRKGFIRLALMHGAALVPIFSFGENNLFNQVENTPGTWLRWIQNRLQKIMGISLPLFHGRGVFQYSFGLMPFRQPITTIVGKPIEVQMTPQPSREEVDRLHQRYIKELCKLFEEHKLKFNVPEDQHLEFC

T1 sequence (Q3SYC2 whole entry): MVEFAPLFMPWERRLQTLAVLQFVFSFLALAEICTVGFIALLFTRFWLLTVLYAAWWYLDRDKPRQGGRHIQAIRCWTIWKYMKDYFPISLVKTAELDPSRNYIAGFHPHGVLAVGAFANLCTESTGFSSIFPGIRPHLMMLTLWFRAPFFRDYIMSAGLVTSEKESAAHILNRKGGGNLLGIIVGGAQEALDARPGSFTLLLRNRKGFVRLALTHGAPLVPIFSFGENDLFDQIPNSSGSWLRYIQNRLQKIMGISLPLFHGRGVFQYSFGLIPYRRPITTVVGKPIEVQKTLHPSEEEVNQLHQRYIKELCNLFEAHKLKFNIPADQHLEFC

IC50 [1]: 7.8 nM | IC50 [2]: 2.4 nM
SMILES: Cn1nc(C(F)(F)F)cc1-c1cnc(N2CCc3cc(S(=O)(=O)Nc4c(F)cc(Cl)cc4F)cc(N4CCCC4=O)c32)nc1 [compA, compound A]
